Columns and labels:
[1] = Equilibrium solubility in pH 6.8 0.01M phosphate buffer by HPLC; type: physicochemical; details: pH6.8 0.01M potassium dihydrogen phosphate buffer
[2] = 1 week stability of shortlisted salts at 40° C./75% RH, open; type: physicochemical; details: after 7 days at 40° C./75% RH, open

For Fumarate, the “Solubility in pH 6.8 buffer” value [1] was 2.62 mg/mL, the “% purity” value ([2]; HPLC) was 95.81% and the XRD ([2]; physical form vs initial) was “Same as initial form”.

Reference: patent US11820782B2, “Salt forms of amino pyrazine purine based selective kinase inhibitor” (FTG BIO LLC, priority 2018, dated 2023)
